Test results published in ChEMBL document CHEMBL1155407, “Synthesis and evaluation of duocarmycin SA analogs incorporating the methyl 1,2,8,8a-tetrahydrocyclopropa[c]oxazolo[2,3-e]indol-4-one-6-carboxylate (COI) alkylation subunit” (Bioorg Med Chem Lett, 2010).
Activity calls are given as the source filed them. The rule behind the calls is not given here.

Legend:
[1] = system: Nucleic Acid; assay: Alkylation of cell free 32p end labeled double stranded w794 DNA at 10 uM after 48 hrs by PAGE and autoradiography; format: nucleic-acid assay
[2] = system: Nucleic Acid; assay: Alkylation of cell free 32p end labeled double stranded w794 DNA at 100 uM after 48 hrs by PAGE and autoradiography; format: nucleic-acid assay
[3] = system: L1210; assay: Cytotoxicity against mouse L1210 cells; format: functional, cell-based

With `COC(=O)c1cc2c([nH]1)C(=O)C=C1N(C(=O)c3cc4cc(OC)c(OC)c(OC)c4[nH]3)C[C@H]3C[C@]123` the Activity [1] was “Active” and the Activity [2] was “inactive”.

With `COC(=O)c1nc2c(O)cc3c(c2o1)C(CCl)CN3C(=O)c1cc2cc(OC)c(OC)c(OC)c2[nH]1` (racemic) the IC50 [3] was 5.4 nM, the Activity [1] was “Active” and the Activity [2] was “inactive”.

Molecule `COC(=O)c1nc2c(O)cc3c(c2o1)C(CCl)CN3C(=O)OC(C)(C)C` (stereo unspecified) has an IC50 [3] of 550 nM.
